{
  "source": "patent US20260000713A1",
  "about": "“MICROBIAL M[…] INTESTINAL INFLAMMATION” (CEDARS-SINAI MEDICAL CENTER, priority 2021, published 2026)",
  "key": {"IFN-γ": {"tested_on": "IFN-γ", "details": "MLN cells restimulated with anti-CD3ε and anti-CD28 for 3 days", "method": "(§1) Acetate supplementation: Sodium acetate (Sigma Aldrich) was added at 200 mM to drinking water. SPF mice were supplemented with acetate water for 2 or 4 months starting at 2 months of age. GF mice were supplemented with acetate water for 3 months starting at 2-3 months of age.\nIsolation of mesenteric lymph nodes mononuclear cells, restimulation, and ELISA: Mesenteric lymph nodes (MLN) were removed from the peritoneal cavity and mesenteric fat was removed. Single cell suspension was prepared by crushing MLN between two glass slides and passing the cell suspension through a 40 μm cell strainer. Single-cell suspensions were restimulated with anti-CD3ε (0.5 μg/ml) and anti-CD28 (1 μg/ml) antibodies for 3 days. Cytokine levels in supernatants were measured by ELISA. Cytokine concentration in culture supernatants was assayed by ELISA for murine IFN-γ (eBioscience).\n(§2) The groups depicted include WT H2O, WT Ac (acetate), Tl1a-tg H2O, and Tl1a-tg Ac. Around 12-19 mice were used in each group. […] Around 6 mice were used per group."}, "[1]": {"tested_on": "GF WT mice or GF Tl1a-tg mice", "details": "200 mM sodium acetate in drinking water for 3 months, vs regular drinking water", "method": "(§3) Histology Scoring: Ileal tissues were collected 1-2 cm long near cecum, paraffin-embedded and stained with H&E for histological analysis. Severity of ileal inflammation was evaluated in a blinded manner according to previously described criteria by two trained animal pathologists. Spontaneous ileitis was evaluated by scoring the degree of inflammation, extent of involvement, crypt damage and villus changes as described. GF mice were evaluated using a scoring criterion.\nThe impact of acetate on the development of ileitis was examined.\nas §1\n12-week-old littermate GF WT mice or GF Tl1a-tg mice were treated with 200 mM of sodium acetate in drinking water (ad libitum) for 3 months. […] The number of mice used was 12 to 22 mice per group."}, "Paneth cells": {"tested_on": "Paneth cells", "details": "acetate treated GF WT or Tl1a-tg mice", "method": "as §1, §2"}, "[2]": {"tested_on": "SPF WT mice or tl1a-tg mice", "method": "as §3, §1\nIn a second set of experiments, SPF WT mice or tl1a-tg mice were treated with acetate in drinking water for 2 or 4 months starting at 2 months of age. […] 9 to 23 mice were used per group."}, "[3]": {"tested_on": "Germ-free IBD susceptible mice", "details": "Germ-free Tl1a-Tg mice receiving acetate vs standard water", "method": "as §1"}},
  "note": "Like-named read-outs stand apart in the source and are kept apart here.",
  "data": [
    {"smiles": "CC(=O)[O-].[Na+]", "note": "[acetate, Sodium acetate]", "values": [
      {"measurement": "IFN-γ secretion by MLN", "setting": "IFN-γ; acetate treated GF Tl1a-tg mice", "value": "significantly elevated IFN-γ secretion"},
      {"measurement": "IFN-γ secretion by MLN", "setting": "IFN-γ; acetate treated GF WT mice", "value": "significantly elevated IFN-γ secretion"},
      {"measurement": "ileal inflammation (ileum histoscore)", "setting": "[1]; GF Tl1a-tg mice", "value": "developed ileal inflammation"},
      {"measurement": "ileal inflammation (ileum histoscore)", "setting": "[1]; GF WT mice", "value": "developed ileal inflammation"},
      {"measurement": "Paneth cell granule maturation (percentage of Paneth cells with D0, D1, D2, D3 features)", "setting": "Paneth cells", "value": "did not result in normal Paneth cell granule maturation"},
      {"measurement": "ileitis (histoscore)", "setting": "[2]; SPF Tl1a-tg mice, acetate in drinking water for 2 months starting at 2 months of age, vs age-matched water controls", "value": "led to ileitis"},
      {"measurement": "ileal inflammation (histoscore)", "setting": "[2]; SPF WT mice, acetate in drinking water for 4 months starting at 2 months of age, vs water controls", "value": "developed ileal inflammation"},
      {"measurement": "cecal collagen deposition (fibrosis)", "setting": "[3]", "value": "increase in cecal collagen deposition"}
    ]}
  ]
}
